The substances below were run on PBMCs.
Format: cell-based, human

| Substance | IFNγ response to the VARV version of the polypeptide | S.I. (stimulation index: mean spots per well containing polypeptide/mean spots per background wells) | number of subjects recognizing the peptide [subjects] |
| --- | --- | --- | --- |
| GVIFLISVIVLVCSCN | detected | 2.3 |  |
| CYIFHSDYQLFSDAKA |  | 1.1 |  |
| CYILHSDYQLFSDAKA [Polypeptide 6] |  | 3.5 | 3 |
| 18 (GVIFLISVIVLVCSCDGVIFLISVIVLVCSCN) [compound 18] |  | 2.1 |  |
| EVLFRLENHAETLRAA [Polypeptide 21] |  | 2.5 |  |
| DTFFRTSPMVIATTDI |  | 1.1 |  |
| KADGDDNEETLKQRLT |  | 1 |  |
| LYNKPLYEVNAIITLI |  | 1 |  |
| DVLFRLENHAETLRAA |  | 0.7 |  |

Source: patent US9446119B2 (priority 2011, dated 2016)
